Patent US11725015B2, “Macrocyclic compound and uses thereof” (President and Fellows of Harvard College, priority 2017, dated 2023)

Columns and labels:
[1] = tested on: human gastric cancer cell line NCI-N87; assay: NCI-N87 growth inhibition assay; assay type: cell-based; conditions: 3 days incubation, CellTiter-Glo
Procedure: (§1) In this assay, the growth inhibitory activities of test compounds in human gastric cancer cell lines NCI-N87 and MKN-28 were measured, respectively. NCI-N87 and MKN-28 cells were maintained in RPMI-1640 medium containing 10% FBS, penicillin and streptomycin in a 5% CO2 incubator (37° C.). To each well of a 96-well plate (Becton, Dickinson and Company, 353219), 100 μL of NCI-N87 or MKN-28 cell suspension adjusted to a concentration of 3×10^4 cells/mL with the culture medium was added, and the cells were incubated overnight in a 5% CO2 incubator (37° C.). On the next day, 100 μL of Compound (1) or Halichondrin B in three-fold dilution series suspended in the culture medium was added to each well, and the resultant was incubated for 3 days in a 5% CO2 incubator (37° C.). Then, cell viability was determined by CellTiter-Glo® Luminescent Cell Viability Assay (Promega) with EnVision 2103 Multilabel Reader (Perkin-Elmer, Wellesley, Mass.). Value of the wells containing cells without adding the test compounds was defined as 100% and the value of the wells containing no cells was defined as 0%. The concentrations of the test compound necessary for inhibiting the cell growth by 50% (i.e., an IC50 value) were calculated and are shown in Table 14.

[2] = tested on: human synovial sarcoma cell line HS-SY-II; assay: HS-SY-II growth inhibition assay; assay type: cell-based; conditions: 3 days incubation, CellTiter-Glo
Procedure: In this assay, the growth inhibitory activities of test compounds in the human synovial sarcoma cell line HS-SY-II were measured. […] cells were maintained in a DMEM medium containing 10% FBS, penicillin, and streptomycin in a 5% CO2 incubator (37° C.). To each well of a 96-well plate (Becton, Dickinson and Company, 353219), 100 μL of a HS-SY-II cell suspension adjusted to a concentration of 3×10^4 cells/mL with the culture medium was added, and the cells were incubated overnight in a 5% CO2 incubator (37° C.). On the next day, 100 μL of Compound (1) or Halichondrin B in three-fold dilution series suspended in the culture medium was added to each well, and the resultant was incubated for 3 days in a 5% CO2 incubator (37° C.). Then, cell viability was determined by CellTiter-Glo® Luminescent Cell Viability Assay (Promega) with EnVision 2103 Multilabel Reader (Perkin-Elmer, Wellesley, Mass.). Value of the wells containing cells without adding the test compounds was defined as 100% and the value of the wells containing no cells was defined as 0%. The concentrations of the test compounds necessary for inhibiting the cell growth by 50% (i.e., an IC50 value) were calculated, and are shown in Table 17.

[3] = tested on: human gastric cancer cell line MKN-28; assay: MKN-28 growth inhibition assay; assay type: cell-based; conditions: 3 days incubation, CellTiter-Glo
Procedure: as §1

[4] = tested on: α-SMA positive-CAFs in the FaDu subcutaneous model; assay: Effect on α-SMA positive-CAFs in the FaDu subcutaneous model (Test Example 10); assay type: in vivo, mice; conditions: two days after administration
Procedure: A human squamous cell carcinoma of the head and neck (SCCHN) cell line FaDu, which had been cultured in an RPMI-1640 medium containing 10% FBS, and penicillin and streptomycin, was adjusted to a concentration of 5×10^7 cells/mL with PBS to prepare a cell suspension. The cell suspension was inoculated in a volume of 100 μL into a subcutaneous part of a right flank of nude mice, 5 to 6 weeks of ages (CAnN.Cg-Foxnlnu/CrlCrlj, female, Charles River Laboratories Japan, Inc.). Ten days after cell inoculation, a test compound in saline with 100 μM of hydroxypropyl-β-cyclodextrin was intravenously administered at ½ MTD and MTD. The experiment was conducted on groups each consisting of 3 mice. Two days after administration, tumor samples were collected and fixed with IHC Zinc Fixative (BD Pharmingen) at 4° C. for 24 hr. Paraffin-embedded tissues were sectioned (3 μm), mounted on positively charged slides, and air-dried for 6 hr. Immunohistochemical staining of α-SMA was conducted using Ventana autostainer model Discover XT (Roche Diagnostics). Sections were deparaffinized, conditioned and the antigens were retrieved with proprietary buffers, EZPrep and CC1 (Ventana Medical Systems). Mouse anti-α-SMA monoclonal antibody conjugated with alkaline phosphatase (clone 1A4, Sigma) was applied at 5 μg/mL. Sections were incubated with the antibody for 6 hr. The detection was performed with RedMap kit (Ventana Medical Systems, Inc). Sections were dehydrated in graded ethanols, defatted in xylene replacement and covered with DPX (Merck KGaA). The serial tumor slices were deparaffinized and stained with Mayer's hematoxylin (Muto Pure Chemicals) for 1 min. Sections were dehydrated in graded ethanols, defatted in xylene replacement and covered with DPX (Merck KGaA).
Immunostained slides were scanned using Vectra 2 Automated Slide Imaging System (Perkin Elmer Inc.). The area of the α-SMA-positive region in the whole tumor was quantified by counting the α-SMA-positive objects using inForm 2 software (PerkinElmer Inc.). Area of the tumor region was measured by assessing the hematoxylin-staining area using in Form 2 software (PerkinElmer Inc.). The area of the α-SMA positive region was normalized by the area of the tumor region. A suppression rate of the α-SMA positive area of the test compound-dosing group was calculated with the below formula, and shown in Table 10.

[5] = tested on: FaDu subcutaneous xenograft; assay: Antitumor effects in FaDu subcutaneous xenograft model in combination with cetuximab in mice; assay type: in vivo
Procedure: A human squamous cell carcinoma of the head and neck (SCCHN) cell line FaDu, which had been cultured in an RPMI-1640 medium containing 10% FBS, and penicillin and streptomycin, was adjusted to a concentration of 5×10^7 cells/mL with Hanks' Balanced Salt Solution to prepare a cell suspension. The cell suspension was inoculated in a volume of 100 μL into a subcutaneous part of a right flank of nude mice, 7 weeks of ages (CAnN.Cg-Foxnlnu/CrlCrlj, female, Charles River Laboratories Japan Inc.).
On the basis of the volumes of tumors obtained on the first day of administration, the mice were grouped such that averages of the tumor volumes were substantially equal among the groups. Each test compound was dissolved in DMSO and a solution was stored at the freezer before use. Immediately before the administration, the stock solution was diluted in saline with 100 μM of hydroxypropyl-β-cyclodextrin. […] Incidentally, the experiment was conducted on groups each consisting of 4 mice.

| SMILES | IC50 [1] [nM] | IC50 [2] [nM] | IC50 [3] [nM] | Suppression rate of α-SMA positive area (%) ([4]; 0.10 mg/kg intravenously) | Suppression rate of α-SMA positive area (%) ([4]; 0.20 mg/kg intravenously) | Tumor Regression on day 35 (%) ([5]; 0.05 mg/kg intravenously + cetuximab 20 mg/kg) | Tumor Regression on day 35 (%) ([5]; 0.1 mg/kg intravenously + cetuximab 20 mg/kg) | Suppression rate of α-SMA positive area (%) ([4]; 0.025 mg/kg intravenously) | Suppression rate of α-SMA positive area (%) ([4]; 0.05 mg/kg intravenously) | Tumor Regression on day 35 (%) ([5]; 0.0125 mg/kg intravenously + cetuximab 20 mg/kg) | Tumor Regression on day 35 (%) ([5]; 0.025 mg/kg intravenously + cetuximab 20 mg/kg) |
| --- | --- | --- | --- | --- | --- | --- | --- | --- | --- | --- | --- |
| C=C1C[C@@H]2CC[C@@]34C[C@H]5O[C@H]6[C@@H](O3)[C@H]3O[C@H](CC[C@@H]3O[C@H]6C5O4)CC(=O)O[C@@H]3[C@@H](C)[C@@H]4O[C@@H]5C[C@]6(C[C@@H]7O[C@]8(C[C@H](C)[C@@H]9O[C@H](CN)[C@H](O)C[C@@H]9O8)C[C@H](C)[C@@H]7O6)O[C@@H]5C[C@@H]4O[C@H]3C[C@H]3O[C@@H](CC[C@@H]1O2)C[C@@H](C)C3=C [Compound (1)] | 0.002 | 0.002 | 0.015 | 21 | 28 | 38 | 60 |  |  |  |  |
| C=C1C[C@@H]2CC[C@@]34C[C@H]5O[C@H]6[C@@H](O3)[C@H]3O[C@H](CC[C@@H]3O[C@H]6[C@H]5O4)CC(=O)O[C@@H]3[C@@H](C)[C@@H]4O[C@@H]5C[C@]6(C[C@@H]7O[C@]8(C[C@H](C)[C@@H]9O[C@H]([C@@H](O)C[C@@H](O)CO)C[C@@H]9O8)C[C@H](C)[C@@H]7O6)O[C@@H]5C[C@@H]4O[C@H]3C[C@H]3O[C@@H](CC[C@@H]1O2)C[C@@H](C)C3=C [Halichondrin B, reference compound] | 0.007 | 0.01 | 0.017 |  |  |  |  | 7 | 3 | −38 | −2 |
